{"source": "patent US11926595B1", "about": "“2-(2-ethoxyethoxy)-6-(4-hydroxyphenyl)-4-(4-methylphenyl)nicotinonitrile as an antimicrobial compound” (KING FAISAL UNIVERSITY, priority 2023, dated 2024)", "key": {"Staphylococcus aureus": {"test_system": "Staphylococcus aureus", "assay": "Antimicrobial screening by agar dilution, Staphylococcus aureus", "type": "cell-based", "conditions": "after 10, 20, 40 and 60 minutes at all dilutions 1:100, 1:200, 1:400, 1:800", "protocol": "(§1) The antibacterial properties of the synthesized compound 2-(2-ethoxyethoxy)-6-(4-hydroxyphenyl)-4-(4-methylphenyl)nicotinonitrile were studied by the method of agar dilution. Test solutions of each compound was prepared in concentration of 1% using dimethylformamide as a solvent then they are diluted in physiological solution to obtain the final experimental dilutions 1: 100, 1:200, 1:400, 1:800. The effect of these substances are compared with furacillin in a controllable study. The testing microbes used were gram positive bacteria Staphylococcus aureus, gram negative bacteria Pseudomonas aeruginosa and Escherichia coli and Candida albicans fungus. The experiments used for this survey were meat-pentonlu agar (EPA) for cultivation of bacteria and Saburo environment for the fungus. Each experiment used 1 mL of test solution on each plate […]. Two drops of emulsified with microbes feel were added. All experimental samples were taken from the agar after 10, 20, 40, 60 minutes in the environment on the basis of Patrk planted. The bacteria were cultivated at a temperature of 37° C. for 1 day and the mushroom was kept in a thermostat for 2 hours at a temperature of 28° C. Then results were checked."}, "Pseudomonas aeruginosa": {"test_system": "Pseudomonas aeruginosa", "assay": "Antimicrobial screening by agar dilution, Pseudomonas aeruginosa", "type": "cell-based", "conditions": "after 10, 20, 40 and 60 minutes at all dilutions 1:100, 1:200, 1:400, 1:800", "protocol": "as §1"}, "Candida albicans": {"test_system": "Candida albicans", "assay": "Antimicrobial screening by agar dilution, Candida albicans", "type": "cell-based", "conditions": "after 10, 20, 40 and 60 minutes at all dilutions 1:100, 1:200, 1:400, 1:800", "protocol": "as §1"}, "Escherichia coli": {"test_system": "Escherichia coli", "assay": "Antimicrobial screening by agar dilution, Escherichia coli", "type": "cell-based", "conditions": "after 10, 20, 40 and 60 minutes at all dilutions 1:100, 1:200, 1:400, 1:800", "protocol": "as §1"}}, "data": [{"smiles": "CCOCCOc1nc(-c2ccc(O)cc2)cc(-c2ccc(C)cc2)c1C#N", "note": "[2-(2-ethoxyethoxy)-6-(4-hydroxyphenyl)-4-(4-methylphenyl)nicotinonitrile]", "values": [{"measurement": "melting point", "result": "175 to 177", "unit": "°C"}, {"measurement": "inhibition activity (summary in words)", "setting": "Staphylococcus aureus", "result": "highest inhibition activity"}, {"measurement": "inhibition activity (summary in words)", "setting": "Pseudomonas aeruginosa", "result": "highest inhibition activity"}, {"measurement": "inhibition activity (summary in words)", "setting": "Candida albicans", "result": "highest inhibition activity"}, {"measurement": "inhibition activity (summary in words)", "setting": "Escherichia coli", "result": "highest inhibition activity"}]}]}
